{"source": "patent US20150252026A1", "about": "“4-(INDOLYL OR BENZIMIDAZOLYL)AMINO-2-(2-(INDOL-3-YL)ETHYL)AMINOPYRIMIDINES USEFUL FOR THE TREATMENT OF CANCER” (NOVIGA RESEARCH AB, priority 2012, published 2015)", "key": {"[1]": {"system": "colchicine site on tubulin (porcine brain tubulin)", "assay": "Colchicine displacement assay, fluorometric detection", "type": "binding", "settings": "compound 20 μM, colchicine 2 μM, porcine brain tubulin 2 μM, 2 h; control = colchicine bound to tubulin", "experimental": "To study whether the compounds bind to the colchicine site on tubulin, a colchicine displacement assay using fluorometric detection was performed as previously described (Bhattacharyya B. et al.; Proc Natl Acad Sci USA 1974, 71:2627-31; Risinger A L. et al.; J Pharmacol Exp Ther 2011; 336:652-60). Porcine brain tubulin at 2 μM (Cytoskeleton) in a buffer consisting of 80 mM PIPES, 2 mM MgCl2, 0.5 mM EGTA at pH 7.0 with addition of 1 mM GTP, was incubated alone, with 2 μM colchicine or with 2 μM colchicine in the presence of test compounds or reference compound combretastatin A4 at 20 μM for 2 h in a black half-area 96-well plate (Corning Inc, Corning, N.Y., USA). Thereafter, the fluorescence was measured using a FLUOStar Optima (BMG Labtech) at an excitation of 380 nm and emission of 440 nm. The results are presented as percent of control i.e. colchicine bound to tubulin."}, "[2]": {"system": "A2780/Adr (multidrug-resistant ovarian cancer)", "assay": "FMCA cell viability in multidrug-resistant ovarian cancer cell line A2780/Adr", "type": "cell-based", "settings": "A2780/Adr multidrug-resistant ovarian cancer cells", "text": "(§1) The Fluorometric Microculture Cytotoxicity Assay, FMCA (Larsson, R., et al.; Anticancer Res, 1989, 9, 1111-1119), is a three day non-clonogenic microplate-based cell viability assay used for measurement of the cytotoxic and/or cytostatic effect of compounds in vitro (Lindhagen, E. et al.; Nat. Protoc., 2008, 3, 1364-1369). FMCA represents a valuable method to measure cytotoxicity in a number of cell types, both cell lines and primary cells from patients (Larsson, R., et al.; Int. J. Cancer, 1992, 50, 177-185; Fridborg, H., et al.; Eur. J. Cancer, 1999. 35, 424-432; Dhar, S., et al.; Br. J. Cancer, 1996, 74, 888-896).\n(§2) FMCA is based on the principle that fluorescein diacetate (FDA) is converted to the fluorescent probe fluorescein by esterases […]. For experiments, 96-well microplates are prepared with compounds and stored at −20° C. or −70° C. until use. Cells are then seeded into the drug-prepared plates and placed in an incubator for 72 h. On the last day of incubation, the plates are washed and a buffer containing FDA is added and incubated with the cells for 45 minutes. Finally the fluorescence per well is measured in a fluorometer and a Survival Index % (SI) for each compound-treated well is calculated with the equation: Compound-treated cells minus blank divided by control cells minus blank. A high SI-value indicates a large percentage of living cells and vice versa.\n(§3) To obtain EC50-values, plates were prepared with compounds serially diluted in culture media to suitable concentration ranges for each compound. Thereafter cells were added at a density of 10 000 cells per well and FMCA was performed after 72 h. Data analysis was performed using GraphPadPrism software, where SI values for each concentration were plotted on a log scale and processed with non-linear regression and a standard sigmoidal dose-response model.\n(§4) The compounds of the invention were also tested on further cancer cell lines related to ovarian cancer (A2780; see e.g. Hamilton, T. et al.; Semin. Oncol., 1984, 11, 285-298) and multidrug-resistant ovarian cancer (A2780/Adr). The known microtubule interfering agents vincristine and paclitaxel were included as references in the resistant and non-resistant ovarian cancer cell lines."}, "A2780 (ovarian cancer)": {"system": "A2780 (ovarian cancer)", "assay": "FMCA cell viability in ovarian cancer cell line A2780", "type": "cell-based", "settings": "Homo sapiens; A2780 ovarian cancer cells", "text": "as §1, §2, §3, §4"}, "bovine tubulin protein": {"system": "bovine tubulin protein", "assay": "Tubulin polymerization assay kit (Cytoskeleton Inc), fluorescence", "type": "biochemical", "settings": "for inhibitory effects on tubulin polymerization (in words): cell-free, 1, 3 and 10 μM; for pIC50: cell-free, example compounds at 1, 3 and 10 μM, controls at 3 μM, 60 min, read-out: Inhibition of tubulin polymerization IC50", "experimental": "Example compounds were further tested in a tubulin polymerization assay kit from Cytoskeleton Inc (Denver, Colo., USA). Polymerization is followed by fluorescence enhancement due to the incorporation of a fluorescent reporter into microtubules as polymerization occurs. Vincristine and paclitaxel at 3 μM were used as positive controls for tubulin polymerization inhibition and stabilisation, respectively. All compounds were dissolved in DMSO, which was used as solvent control. For experiments, example compounds (1, 3, and 10 μM) and control compounds (3 μM) were incubated with bovine tubulin protein in a cell-free environment and the fluorescence was then measured in a fluorometer (Fluostar Optima, BMG Labtech, Offenburg, Germany) at 360/450 nm every minute for a total of 60 mins."}, "[3]": {"system": "acute lymphoblastic leukemia cell line CCRF-CEM", "assay": "Fluorometric Microculture Cytotoxicity Assay (FMCA) in CCRF-CEM cells", "type": "cell-based", "settings": "Homo sapiens, FMCA after 72 h", "text": "as §1, §2\nFor experiments with compounds of the invention, 96-well plates were prepared as follows:\nCompounds were dissolved in DMSO to 10 mM and stored at −20° C. The test compounds were thawed, protected from light, mixed, and 3 μl stock solution was added to test tubes containing 297 μl culture medium RPMI-1640, to give the concentration 100 μM. Then, compounds were serially diluted to concentrations ten times higher than the desired test concentrations. Finally, 20 μl of each compound solution was added in duplicates to wells in two V-bottomed 96-well plates. The plates were stored at −20° C. until use.\nOn the day of cell seeding, 180 μl of cell suspension was added to each well in the two assay plates. The final concentrations of compounds tested were 10 μM, 1 μM, 0.1 μM and 0.01 μM. The experiment was performed twice.\nIn subsequent experiments, compounds were tested, along with a number of approved cancer drugs (dasatinib and pazopanib) as described above. The acute lymphoblastic leukemia cell line CCRF-CEM was used throughout. In the assay plates, medium was added to eight empty wells (blank wells) and wells filled with cell suspension served as control wells. SI-values were then calculated for each compound-treated well as described above. All experiments were conducted twice and a new batch of plates was prepared for each experiment.\nas §3"}}, "note": "pEC50, pIC50: −log10 of the molar value."}
{"smiles": "COc1ccc(/C=C\\c2cc(OC)c(OC)c(OC)c2)cc1O", "note": "[Combretastatin A4, combretastatin A4, reference compound]", "values": [{"measurement": "Colchicine-tubulin binding Percent of control", "setting": "[1]", "result": "66% of control"}]}
{"smiles": "CCOc1ccc2[nH]cc(CCNc3nccc(Nc4ccc5c(c4)nc(C)n5C)n3)c2c1", "note": "[Example 1, N^4-(1 2-dimethyl-1H-benzo[d]imidazol-5-yl)-N^2-[2-(5-ethoxy-1H-indol-3-yl)ethyl]pyrimidine-2,4-diamine]", "values": [{"measurement": "pEC50", "setting": "[2]", "result": 6.42}, {"measurement": "Colchicine-tubulin binding Percent of control", "setting": "[1]", "result": "95% of control"}, {"measurement": "pEC50", "setting": "A2780 (ovarian cancer)", "result": 7.77}, {"measurement": "inhibitory effects on tubulin polymerization (in words)", "setting": "bovine tubulin protein", "result": "showed inhibitory effects on tubulin polymerization"}, {"measurement": "pIC50", "setting": "bovine tubulin protein", "result": "5.52 to 6.00"}, {"measurement": "pEC50", "setting": "[3]", "result": 7.92}]}
{"smiles": "COc1ccc2[nH]cc(CCNc3nccc(Nc4cccc5c4ncn5C)n3)c2c1", "note": "[Example 2, N^2-[2-(5-methoxy-1H-indol-3-yl)ethyl]-N^4-(1-methylbenzimidazol-4-yl)pyrimidine-2,4-diamine]", "values": [{"measurement": "pEC50", "setting": "[2]", "result": 7.77}, {"measurement": "Colchicine-tubulin binding Percent of control", "setting": "[1]", "result": "81% of control"}, {"measurement": "pEC50", "setting": "A2780 (ovarian cancer)", "result": 8.48}, {"measurement": "inhibitory effects on tubulin polymerization (in words)", "setting": "bovine tubulin protein", "result": "showed inhibitory effects on tubulin polymerization"}, {"measurement": "pIC50", "setting": "bovine tubulin protein", "result": "5.52 to 6.00"}, {"measurement": "pEC50", "setting": "[3]", "result": 8.01}]}
{"smiles": "CCOc1ccc2[nH]cc(CCNc3nccc(Nc4cccc5c4ncn5C)n3)c2c1", "note": "[Example 3, N^2-[2-(5-ethoxy-1H-indol-3-yl)ethyl]-N^4-(1-methylbenzimidazol-4-yl)pyrimidine-2,4-diamine]", "values": [{"measurement": "pEC50", "setting": "[2]", "result": 7.62}, {"measurement": "pEC50", "setting": "A2780 (ovarian cancer)", "result": 8.04}, {"measurement": "pEC50", "setting": "[3]", "result": 8.25}]}
{"smiles": "CCOc1ccc2[nH]cc(CCNc3nc(C)cc(Nc4ccc5[nH]ccc5c4)n3)c2c1", "note": "[Example 4, N^2-[2-(5-ethoxy-1H-indol-3-yl)ethyl]-N^4-(1H-indol-5-yl)-6-methyl-pyrimidine-2,4-diamine]", "values": [{"measurement": "pEC50", "setting": "[2]", "result": 6.03}, {"measurement": "pEC50", "setting": "A2780 (ovarian cancer)", "result": 6.02}, {"measurement": "pIC50", "setting": "bovine tubulin protein", "result": "< 5.00"}, {"measurement": "pEC50", "setting": "[3]", "result": 6.10}]}
{"smiles": "COc1ccc2[nH]cc(CCNc3nc(C)cc(Nc4ccc5cc(C)[nH]c5c4)n3)c2c1", "note": "[Example 5, N^2-[2-(5-methoxy-1H-indol-3-yl)ethyl]-6-methyl-N^4-(2-methyl-1H-indol-6-yl)pyrimidine-2,4-diamine]", "values": [{"measurement": "pEC50", "setting": "[2]", "result": 6.40}, {"measurement": "pEC50", "setting": "A2780 (ovarian cancer)", "result": 6.89}, {"measurement": "inhibitory effects on tubulin polymerization (in words)", "setting": "bovine tubulin protein", "result": "showed inhibitory effects on tubulin polymerization"}, {"measurement": "pIC50", "setting": "bovine tubulin protein", "result": "5.00 to 5.52"}, {"measurement": "pEC50", "setting": "[3]", "result": 7.00}]}
{"smiles": "CCOc1ccc2[nH]cc(CCNc3nc(C)cc(Nc4ccc5cc(C)[nH]c5c4)n3)c2c1", "note": "[Example 6]", "values": [{"measurement": "pEC50", "setting": "[2]", "result": 6.35}, {"measurement": "pEC50", "setting": "A2780 (ovarian cancer)", "result": 6.77}, {"measurement": "pEC50", "setting": "[3]", "result": 7.16}]}
{"smiles": "COc1ccc2[nH]cc(CCNc3nc(C)cc(Nc4cccc5c4ccn5C)n3)c2c1", "note": "[Example 7, N^2-[2-(5-methoxy-1H-indol-3-yl)ethyl]-6-methyl-N^4-(1-methylindol-4-yl)pyrimidine-2,4-diamine]", "values": [{"measurement": "pEC50", "setting": "[2]", "result": 7.28}, {"measurement": "pEC50", "setting": "A2780 (ovarian cancer)", "result": 7.92}, {"measurement": "pEC50", "setting": "[3]", "result": 7.49}]}
{"smiles": "CCOc1ccc2[nH]cc(CCNc3nc(C)cc(Nc4cccc5c4ccn5C)n3)c2c1", "note": "[Example 8, N^2-[2-(5-ethoxy-1H-indol-3-yl)ethyl]-6-methyl-N^4-(1-methylindol-4-yl)pyrimidine-2,4-diamine]", "values": [{"measurement": "pEC50", "setting": "[2]", "result": 6.89}, {"measurement": "Colchicine-tubulin binding Percent of control", "setting": "[1]", "result": "82% of control"}, {"measurement": "pEC50", "setting": "A2780 (ovarian cancer)", "result": 7.32}, {"measurement": "inhibitory effects on tubulin polymerization (in words)", "setting": "bovine tubulin protein", "result": "showed inhibitory effects on tubulin polymerization"}, {"measurement": "pIC50", "setting": "bovine tubulin protein", "result": "~5.52"}, {"measurement": "pEC50", "setting": "[3]", "result": 6.96}]}
{"smiles": "CC(=O)O[C@H]1C(=O)[C@@]2(C)[C@H]([C@H](OC(=O)c3ccccc3)[C@]3(O)C[C@H](OC(=O)[C@H](O)[C@@H](NC(=O)c4ccccc4)c4ccccc4)C(C)=C1C3(C)C)[C@]1(OC(C)=O)CO[C@@H]1C[C@@H]2O", "note": "[Paclitaxel, paclitaxel, reference compound]", "values": [{"measurement": "pEC50", "setting": "[2]", "result": 6.09}, {"measurement": "pEC50", "setting": "A2780 (ovarian cancer)", "result": 9.59}]}
{"smiles": "Cc1nc(Nc2ncc(C(=O)Nc3c(C)cccc3Cl)s2)cc(N2CCN(CCO)CC2)n1", "note": "[Ref. 1, dasatinib, reference compound]", "values": [{"measurement": "pEC50", "setting": "[3]", "result": 5.01}]}
{"smiles": "Cc1ccc(Nc2nccc(N(C)c3ccc4c(C)n(C)nc4c3)n2)cc1S(N)(=O)=O", "note": "[Ref. 2, pazopanib, reference compound]", "values": [{"measurement": "pEC50", "setting": "[3]", "result": 4.59}]}
{"smiles": "CC[C@]1(O)C[C@H]2CN(CCc3c([nH]c4ccccc34)[C@@](C(=O)OC)(c3cc4c(cc3OC)N(C=O)[C@H]3[C@@](O)(C(=O)OC)[C@H](OC(C)=O)[C@]5(CC)C=CCN6CC[C@]43[C@@H]65)C2)C1", "note": "[Vincristine, vincristine, reference compound]", "values": [{"measurement": "pEC50", "setting": "[2]", "result": 6.68}, {"measurement": "pEC50", "setting": "A2780 (ovarian cancer)", "result": 9.66}, {"measurement": "pIC50", "setting": "bovine tubulin protein", "result": "> 5.52"}]}
